Test results from patent US20230117034A1, “PYRAZOLOTRIAZINES” (Bayer Aktiengesellschaft, priority 2019, published 2023).

Columns and labels:
[1] = tested on: CAL-120, human breast adenocarcinoma cells; experiment: Proliferation assay CAL-120 (crystal violet, 4 days); type: cell-based; details: Homo sapiens, CAL-120, 96 h, CAL-120 cells, median, read-out: Prolif-CAL-120, IC50-[mol/l] (median)
Method in brief: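 IC50 from a 4-parameter fit of crystal violet absorbance (595 nm), scaled between the day-of-dosing plate (0%) and vehicle cells (100%). MDA-MB-231 or CAL-120 cells were treated for 4 days with 0.01–10 micromol/L compound in 0.1% DMSO after 24 h attachment.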

[2] = molecular target: T1, CDK12 (nuclear staining in CAL-120 cells) (Homo sapiens, UniProt Q9NYV4); experiment: CDK12 nuclear protein level: immunofluorescence/high content analysis (CAL-120); type: cell-based; details: for DC50: CAL-120 cells, 24 h, immunofluorescence, 50% reduction of nuclear CDK12 staining intensity, median, read-out: CDK12 degradation IF, DC50- [mol/l] (median); for (IC50 CDK12 high ATP) to (Degradation DC50 CDK12) ratio: ratio of IC50 CDK12 high ATP kinase assay to DC50 CDK12 degradation (IF, CAL-120)
T1 construct: endogenous in cells; host or cells: CAL-120 human breast cancer cells (DSMZ ACC 459)
T1 sequence (Q9NYV4 whole entry): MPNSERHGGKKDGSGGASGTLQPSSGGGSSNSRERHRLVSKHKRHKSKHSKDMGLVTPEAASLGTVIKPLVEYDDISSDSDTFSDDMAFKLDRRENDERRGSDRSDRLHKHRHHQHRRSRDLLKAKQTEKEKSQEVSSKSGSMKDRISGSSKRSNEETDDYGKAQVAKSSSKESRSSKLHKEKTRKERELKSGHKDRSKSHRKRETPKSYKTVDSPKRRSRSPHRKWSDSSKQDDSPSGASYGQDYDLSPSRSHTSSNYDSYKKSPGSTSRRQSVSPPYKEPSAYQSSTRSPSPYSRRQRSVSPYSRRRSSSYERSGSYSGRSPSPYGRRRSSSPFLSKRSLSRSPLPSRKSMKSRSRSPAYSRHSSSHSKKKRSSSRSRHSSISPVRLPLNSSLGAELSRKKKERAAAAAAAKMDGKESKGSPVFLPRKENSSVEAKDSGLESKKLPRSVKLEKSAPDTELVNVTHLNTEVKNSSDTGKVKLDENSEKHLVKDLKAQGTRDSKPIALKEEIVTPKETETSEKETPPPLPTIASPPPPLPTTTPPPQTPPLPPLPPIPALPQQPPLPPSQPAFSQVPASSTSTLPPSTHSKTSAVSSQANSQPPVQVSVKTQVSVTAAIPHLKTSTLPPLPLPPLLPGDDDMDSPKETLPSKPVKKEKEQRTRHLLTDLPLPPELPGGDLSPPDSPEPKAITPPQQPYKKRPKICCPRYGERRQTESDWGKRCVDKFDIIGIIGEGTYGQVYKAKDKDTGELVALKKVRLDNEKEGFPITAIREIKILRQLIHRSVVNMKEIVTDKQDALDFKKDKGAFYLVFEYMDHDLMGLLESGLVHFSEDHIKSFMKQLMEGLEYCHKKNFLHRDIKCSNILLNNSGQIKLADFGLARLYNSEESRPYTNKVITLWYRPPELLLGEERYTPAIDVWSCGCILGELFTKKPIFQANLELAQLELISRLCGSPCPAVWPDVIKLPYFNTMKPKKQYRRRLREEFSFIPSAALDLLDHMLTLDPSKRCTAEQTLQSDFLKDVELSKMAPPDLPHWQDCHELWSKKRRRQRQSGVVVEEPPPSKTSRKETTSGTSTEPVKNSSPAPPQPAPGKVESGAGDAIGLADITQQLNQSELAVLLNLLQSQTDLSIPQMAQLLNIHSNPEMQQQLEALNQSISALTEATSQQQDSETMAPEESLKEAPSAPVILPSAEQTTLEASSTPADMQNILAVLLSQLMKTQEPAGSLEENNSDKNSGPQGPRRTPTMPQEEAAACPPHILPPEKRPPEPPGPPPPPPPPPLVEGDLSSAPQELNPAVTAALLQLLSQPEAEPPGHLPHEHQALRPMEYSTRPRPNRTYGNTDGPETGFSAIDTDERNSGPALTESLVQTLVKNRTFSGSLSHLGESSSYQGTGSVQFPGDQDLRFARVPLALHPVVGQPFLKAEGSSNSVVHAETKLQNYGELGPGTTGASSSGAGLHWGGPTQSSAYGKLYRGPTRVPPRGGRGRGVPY
T1 sequence (O75909 whole entry partner): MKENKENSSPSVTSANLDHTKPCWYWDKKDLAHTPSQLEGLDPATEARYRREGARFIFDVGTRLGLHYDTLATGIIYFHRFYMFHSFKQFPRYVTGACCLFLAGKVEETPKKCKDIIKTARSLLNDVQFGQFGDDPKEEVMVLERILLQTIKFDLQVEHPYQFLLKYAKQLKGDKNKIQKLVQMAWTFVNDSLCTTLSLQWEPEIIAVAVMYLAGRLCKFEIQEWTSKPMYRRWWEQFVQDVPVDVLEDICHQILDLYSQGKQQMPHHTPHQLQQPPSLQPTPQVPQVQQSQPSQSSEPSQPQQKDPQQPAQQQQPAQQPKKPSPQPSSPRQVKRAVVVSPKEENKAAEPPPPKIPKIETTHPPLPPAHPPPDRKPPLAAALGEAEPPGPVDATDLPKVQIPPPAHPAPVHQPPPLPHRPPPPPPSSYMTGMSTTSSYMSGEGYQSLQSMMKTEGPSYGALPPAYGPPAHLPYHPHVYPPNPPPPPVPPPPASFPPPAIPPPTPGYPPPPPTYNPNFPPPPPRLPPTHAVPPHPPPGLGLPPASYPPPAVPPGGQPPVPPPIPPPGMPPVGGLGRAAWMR
Method in brief: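 DC50 is the degrader concentration that halves nuclear CDK12 immunofluorescence relative to controls, measured by high-content imaging. CAL-120 cells were exposed to compound for 24 h at 37 °C before PFA fixation, and signal was normalized to DMSO and control wells.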

[3] = tested on: BRCA1 mRNA expression in MDA-MB-231 cells; experiment: qRT-PCR assay: BRCA1 mRNA expression in MDA-MB-231; type: cell-based, human; details: Homo sapiens, MDA-MB-231, Inhibition of BRCA1 mRNA expression in MDA-MB-231 cells; median; read-out: RTqPCR-MDA-MB-231, IC50, BRCA1 (median)
Method in brief: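 BRCA1 transcript by RT-qPCR relative to GAPDH, from 600 ng RNA converted to cDNA. MDA-MB-231 cells plated at 200,000/well received test compound continuously for 24 h, starting 24 h post-seeding.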

| Structure (SMILES) | IC50 [1] | DC50 [2] | (IC50 CDK12 high ATP) to (Degradation DC50 CDK12) ratio [2] | IC50 [3] |
| --- | --- | --- | --- | --- |
| COC(C)(C)COc1nc(NCc2nc3ccccc3[nH]2)n2ncc(Br)c2n1 [Example 403, N-[(1H-benzimidazol-2-yl)methyl]-8-bromo-2-(2-methoxy-2-methylpropoxy)pyrazolo[1,5-a][1,3,5]triazin-4-amine] | 151 nM | 43.1 nM | >464 | – |
| CN1CCN(c2nc(NCc3nc4cc(Cl)c(Cl)cc4[nH]3)n3ncc(-c4cnn(C)c4)c3n2)CC1 [Example 420, N-[(5,6-dichloro-1H-benzimidazol-2-yl)methyl]-2-(4-methylpiperazin-1-yl)-8-(1-methyl-1H-pyrazol-4-yl)pyrazolo[1,5-a][1,3,5]triazin-4-amine] | 209 nM | 80.6 nM | >248 | – |
| CC(C)c1cnn2c(NCc3nnc(-c4ccccc4)[nH]3)nc(N3CCOCC3)nc12 [Example 33, 2-(morpholin-4-yl)-N-[(5-phenyl-4H-1,2,4-triazol-3-yl)methyl]-8-(propan-2-yl)pyrazolo[1,5-a][1,3,5]triazin-4-amine] | – | 67.8 nM | 77 | 23.7 nM |
| CN1CCN(c2nc(NCc3nc4c(F)c(F)ccc4[nH]3)n3ncc(-c4nccs4)c3n2)CC1 [Example 415, N-[(4,5-difluoro-1H-benzimidazol-2-yl)methyl]-2-(4-methylpiperazin-1-yl)-8-(1,3-thiazol-2-yl)pyrazolo[1,5-a][1,3,5]triazin-4-amine] | 268 nM | 105 nM | >191 | – |
| Brc1cnn2c(NCc3nc4ccccc4[nH]3)nc(OC3CCCCC3)nc12 [Example 406, N-[(1H-benzimidazol-2-yl)methyl]-8-bromo-2-(cyclohexyloxy)pyrazolo[1,5-a][1,3,5]triazin-4-amine] | 62.2 nM | 125 nM | >160 | – |
| Brc1cnn2c(NCc3nc4ccccc4[nH]3)nc(OCCN3CCCC3)nc12 [Example 404, N-[(1H-benzimidazol-2-yl)methyl]-8-bromo-2-[2-(pyrrolidin-1-yl)ethoxy]pyrazolo[1,5-a][1,3,5]triazin-4-amine] | 189 nM | 114 nM | >175 | – |
| CN(C)CCOc1nc(NCc2nc3ccccc3[nH]2)n2ncc(Br)c2n1 [Example 399, N-[(1H-benzimidazol-2-yl)methyl]-8-bromo-2-[2-(dimethylamino)ethoxy]pyrazolo[1,5-a][1,3,5]triazin-4-amine] | 83 nM | 66 nM | >303 | – |
| Brc1cnn2c(NCc3nc4ccccc4[nH]3)nc(OCC3CC3)nc12 [Example 408, N-[(1H-benzimidazol-2-yl)methyl]-8-bromo-2-(cyclopropylmethoxy)pyrazolo[1,5-a][1,3,5]triazin-4-amine] | 252 nM | 56.8 nM | >352 | – |
| Brc1cnn2c(NCc3nc4ccccc4[nH]3)nc(OC3CCOCC3)nc12 [Example 405, N-[(1H-benzimidazol-2-yl)methyl]-8-bromo-2-[(oxan-4-yl)oxy]pyrazolo[1,5-a][1,3,5]triazin-4-amine] | 135 nM | 113 nM | >176 | – |
| Cc1cnn2c(NCc3nc4ccccc4[nH]3)nc(N3CC4CCC(C3)N4)nc12 [Example 401, N-[(1H-benzimidazol-2-yl)methyl]-2-(3,8-diazabicyclo[3.2.1]octan-3-yl)-8-methylpyrazolo[1,5-a][1,3,5]triazin-4-amine] | 43.5 nM | 30.8 nM | >649 | – |
| CC(C)c1cnn2c(NCc3ncc(-c4ccccc4)[nH]3)nc(N3CCCCC3)nc12 [Example 36, N-[(5-phenyl-1H-imidazol-2-yl)methyl]-2-(piperidin-1-yl)-8-(propan-2-yl)pyrazolo[1,5-a][1,3,5]triazin-4-amine] | – | 86.5 nM | >231 | 128 nM |
| NCCOCCOCCNc1nc(NCc2nc3ccccc3[nH]2)n2ncc(Br)c2n1 [Example 412, N2-{2-[2-(2-aminoethoxy)ethoxy]ethyl}-N4-[(1H-benzimidazol-2-yl)methyl]-8-bromopyrazolo[1,5-a][1,3,5]triazine-2,4-diamine] | 1130 nM | 77.4 nM | >74 | – |
| O=C(O)C(F)(F)F.c1ccc2[nH]c(CNc3nc(N4CCOCC4)nc4c(-c5ccnnc5)cnn34)nc2c1 [Example 438, trifluoroacetic acid N-[(1H-benzimidazol-2-yl)methyl]-2-(morpholin-4-yl)-8-(pyridazin-4-yl)pyrazolo[1,5-a][1,3,5]triazin-4-amine] | 44.6 nM | 138 nM | >57 | – |

Other lines, results leading:

| IC50 [1] | DC50 [2] | (IC50 CDK12 high ATP) to (Degradation DC50 CDK12) ratio [2] | IC50 [3] | Structure (SMILES) |
| --- | --- | --- | --- | --- |
| – | 42.8 nM | >467 | – | CC(C)c1cnn2c(NCc3nnc(-c4ccccc4)[nH]3)nc(N3CCN(C)CC3)nc12 [Example 37, 2-(4-methylpiperazin-1-yl)-N-[(5-phenyl-4H-1,2,4-triazol-3-yl)methyl]-8-(propan-2-yl)pyrazolo[1,5-a][1,3,5]triazin-4-amine] |
| – | 27.3 nM | 81 | 39 nM | CC(C)c1cnn2c(NCc3ncc(-c4ccccc4)[nH]3)nc(N(C)CC(C)(C)O)nc12 [Example 35, 2-methyl-1-{methyl[4-{[(5-phenyl-1H-imidazol-2-yl)methyl]amino}-8-(propan-2-yl)pyrazolo[1,5-a][1,3,5]triazin-2-yl]amino}propan-2-ol] |
| 171 nM | 28.1 nM | >623 | – | Cc1cnn2c(NCc3nc4ccccc4[nH]3)nc(N(C)CC(C)(C)O)nc12 [Example 397, 1-[(4-{[(1H-benzimidazol-2-yl)methyl]amino}-8-methylpyrazolo[1,5-a][1,3,5]triazin-2-yl)(methyl)amino]-2-methylpropan-2-ol] |
| 46.8 nM | 22.3 nM | >897 | – | Cc1cnn2c(NCc3nc4ccccc4[nH]3)nc(N3CCOCC3)nc12 [Example 393, N-[(1H-benzimidazol-2-yl)methyl]-8-methyl-2-(morpholin-4-yl)pyrazolo[1,5-a][1,3,5]triazin-4-amine] |
| 55 nM | 19.4 nM | >1031 | – | Cc1cnn2c(NCc3nc4ccccc4[nH]3)nc(N3CCN(C)CC3)nc12 [Example 396, N-[(1H-benzimidazol-2-yl)methyl]-8-methyl-2-(4-methylpiperazin-1-yl)pyrazolo[1,5-a][1,3,5]triazin-4-amine] |
| – | 37.2 nM | >153 | – | CCNc1nc(NCc2nnc(-c3ccccc3)[nH]2)n2ncc(C(C)C)c2n1 [Example 38, N^2-ethyl-N^4-[(5-phenyl-4H-1,2,4-triazol-3-yl)methyl]-8-(propan-2-yl)pyrazolo[1,5-a][1,3,5]triazine-2,4-diamine] |
| 80.4 nM | 32.5 nM | >176 | – | COc1cccc2[nH]c(CNc3nc(N4CCOCC4)nc4c(-c5nccs5)cnn34)nc12 [Example 414, N-[(4-methoxy-1H-benzimidazol-2-yl)methyl]-2-(morpholin-4-yl)-8-(1,3-thiazol-2-yl)pyrazolo [1,5-a][1,3,5]triazin-4-amine] |
| 99 nM | 29.8 nM | >531 | – | CC(C)COc1nc(NCc2nc3ccccc3[nH]2)n2ncc(Br)c2n1 [Example 409, N-[(1H-benzimidazol-2-yl)methyl]-8-bromo-2-(2-methylpropoxy)pyrazolo[1,5-a][1,3,5]triazin-4-amine] |
| 36.3 nM | 4.65 nM | 850 | – | COc1cccc2nc(CNc3nc(N4CCOCC4)nc4c(-c5ccnnc5)cnn34)[nH]c12.O=C(O)C(F)(F)F [Example 439, trifluoroacetic acid N-[(7-methoxy-1H-benzimidazol-2-yl)methyl]-2-(morpholin-4-yl)-8-(pyridazin-4-yl)pyrazolo[1,5-a][1,3,5]triazin-4-amine] |
| 41.1 nM | 38.1 nM | >524 | – | Clc1cc2nc(CNc3nc(N4CCOCC4)nc4c(-c5cscn5)cnn34)[nH]c2cc1Cl [Example 424, N-[(5,6-dichloro-1H-benzimidazol-2-yl)methyl]-2-(morpholin-4-yl)-8-(1,3-thiazol-4-yl)pyrazolo [1,5-a][1,3,5]triazin-4-amine] |
| 358 nM | 26.1 nM | >765 | – | COc1cccc2nc(CNc3nc(N4CCN(C)CC4)nc4c(-c5nccs5)cnn34)[nH]c12 [Example 416, N-[(7-methoxy-1H-benzimidazol-2-yl)methyl]-2-(4-methylpiperazin-1-yl)-8-(1,3-thiazol-2-yl)pyrazolo[1,5-a][1,3,5]triazin-4-amine] |
